Results taken from US11964014B2, “Vaccine adjuvants based on TLR receptor ligands” (priority 2019, dated 2024).

Experiments:
[1] = tested on: primary human peripheral blood mononuclear cells (PBMCs); assay: Cytokine (IFNα, IL-12p70, TNFα) induction in human PBMCs stimulated with TLR agonists; type: cell-based; details: human PBMC
Procedure: IFNα and IL-12p70 responses were measured in primary human peripheral blood mononuclear cells (PBMCs) after exposure to various concentrations of oxoadenine compounds.
Liposomes were prepared using the thin film method: phospholipids (DOPC and cholesterol at 40 and 10 mg/mL respectively) and agonist(s) (TLR7/8 agonist fixed at 2 mg/mL) were dissolved in chloroform at the desired concentration in a round bottom flask. The solvent was removed under vacuum by rotary evaporation at 45° C., and the resulting dried film was placed in a vacuum chamber overnight to remove any residual solvent. Rehydration buffer was added to the dried film and the suspension was sonicated to resuspend the phospholipids and form the unilamellar vesicles. Sonication continued until the particle size was<200 nm, at which time the formulations were sterile filtered through a 0.22 μm PVDF filter. Concentrations of agonist(s) in the formulations was determined by RP-HPLC using a five-point standard curve. Human whole blood was collected from normal healthy donors at the University of Montana (Missoula, MT) using an Institutional Review Board approved protocol. […] Culture supernatants were analyzed for IL-12p70 and IFNα levels using human IL-12p70 DuoSet (R) ELISA kit (R&D Systems, Minneapolis, MN) and human IFNα VeriKine ELISA kit (Pestka Biomedical Laboratories, Inc., Piscataway, NJ).

[2] = tested on: monovalent (A/Victoria, H3N2) split flu antigen; type: in vivo, Balb/c mice; details: i.m.
[3] = tested on: CT26 cells (murine colon cancer cell line); assay: CT26 syngeneic tumor model, tumor growth; type: in vivo; details: CT26 s.c. in female Balb/c mice; 10 μg or 50 μg IV once a week for two weeks, 2% glycerol in sterile water (FIG. 6A, 6B)
Procedure: Young, female Balb/c mice (approximately 8 weeks old) were implanted with 1×10^6 CT26 cells (murine colon cancer cell line, syngeneic in Balb/c mice) subcutaneously in the right flank. When tumors reached an average size of 75 mm^3 (11 days after CT26 cells were implanted), mice were randomized into treatment groups. Beginning on day 12, 10 μg or 50 μg of UM-1007 in an aqueous formulation (2% glycerol in sterile water) was injected IV once a week for two weeks.

For CCCCCCCCCCCCCCCC(=O)OC[C@H](COCCOCCOCCOP(=O)(O)OCCN1CCC(Cn2c(O)nc3c(N)nc(O[C@@H](C)CCC)nc32)CC1)OC(=O)CCCCCCCCCCCCCCC [UM-1007], the “IFNα induction potency compared with the non-PEGylated oxoadenine Compound B” value ([1]; 24 h, liposomes, alone or in combination with TLR4 agonist CRX-601 (FIG. 2A)) was “more potent IFNα inducer”, the “IL-12p70 induction potency relative to Compound B” value ([1]; combined with TLR4 agonist CRX-601 (FIG. 2B)) was 125 fold and the “Anti-influenza IgG titers over antigen-only vaccinated animals” value ([2]; Balb/c mice, liposomes, 10 μg UM-1007 alone) was 17 fold. For the same compound, the “Dose dependence of anti-influenza IgG titer enhancement” value ([2]; Balb/c mice, liposomes, 14dp2 (FIG. 3B)) was “enhanced titers in a dose-dependent manner”, the “Anti-influenza IgG titers over the antigen-alone group” value ([2]; Balb/c mice, liposomes, co-encapsulated with CRX-601 (TLR7/8:TLR4 ratio 10:1)) was over 25 fold and the “Anti-influenza IgG titers after a single vaccination” value ([2]; naïve Balb/c mice, liposomes alone or co-encapsulated with CRX-601, 14dp1 (FIG. 3A)) was “Strong anti-influenza IgG titers”. For the same compound, the “Tumor growth compared to treatment naive controls” value [3] was “slower tumor growth”.
